Patent US7285567B2, “Halogenated benzamide derivatives” (Romark Laboratories, L.C., priority 2005, dated 2007)
≈ marks a conversion by molar mass, not a printed value. Where two headings read alike, the source gives them in different places.

What was measured:
B. fragilis group = assay: CLSI agar dilution MIC, anaerobic clinical isolates; type: cell-based; conditions: Bacteroides fragilis, B. fragilis gp (40 isolates), 48 h, 35° C.
Procedure: (§1) Methods. Recent clinical anaerobic isolates (2000 to date) comprised 40 B. fragilis group, 26 Prevotella/Porphyromonas, 28 fusobacteria, 16 anaerobic Gram positive cocci, 14 anaerobic Gram-positive non-sporeforming rods and 18 clostridia. CLSI agar dilution MIC methodology with enriched Brucella blood agar and inocula of 1×10^5 cfu/spot was used. Plates were incubated in an anaerobic glove box at 35° C. for 48 h. Results.

Prevotella/Porphyromonas = assay: as above; type: cell-based; conditions: Prev/Porphy (26 isolates), 48 h
Procedure: as §1

fusobacteria = assay: as above; type: cell-based; conditions: Fusobacteria (28 isolates), 48 h
Procedure: as §1

[1] = system: anaerobic Gram positive cocci; assay: as above; type: cell-based; conditions: Gram + cocci (16 isolates), 48 h
[2] = system: anaerobic Gram-positive non-sporeforming rods; assay: as above; type: cell-based; conditions: Gram + rods (14 isolates), 48 h
clostridia = assay: organism not typed; type: cell-based; conditions: 48 h
[3] = system: anaerobic bacteria (all 142 isolates); assay: CLSI agar dilution MIC, all anaerobic clinical isolates; type: cell-based; conditions: for MIC50 / MIC90: All (142 isolates), agar dilution, 48 h; for Activity against anaerobic bacteria groups (summary in words): summary of MIC results
Hepatitis B Virus (HBV) = assay: HBV replication in 2.2.15 cell culture, 9-day assay; type: cell-based; conditions: for EC50 / EC90: Hepatitis B virus
Procedure: (§2) Anti-Hepatitis B Virus (HBV) analyses and an assessment of cytotoxicity were performed in a 9-day assay in the chronically-producing HBV human hepatoblastoma cell line, 2.2.15, as previously described (Korba, B. E. & Gerin, J. L. Use of a standardized cell culture assay to assess activities of nucleosides analogues against hepatitis B virus replication. Antivir. Res. 19, 55-70 (1992)).
(§3) Values presented (±standard deviations [S.D.]) were calculated by linear regression analysis using data combined from all treated cultures. S.D. were calculated using the standard error of regression generated from linear regression analyses (QuattroPro™). EC50, EC90=drug concentration at which a 2-fold, or a 10-fold depression of HBV DNA (relative to the average levels in untreated cultures), respectively, was observed, CC50=drug concentration at which a 2-fold depression of neutral red dye uptake (relative to the average levels in untreated cultures) was observed, The EC90 values were used for the calculation of the Selectivity Indexes [S.I.] since at least a 3-fold depression of HBV levels is typically required to achieve statistical significance in this assay system. HBV R.I.=intracellular HBV DNA replication intermediate.

[4] = Cytotoxicity in 2.2.15 cells (neutral red dye uptake); type: cell-based; conditions: human, 2-fold depression of neutral red dye uptake
Procedure: as §2, §3

[5] = system: H3N2 influenza virus, type A; assay: Multiple cycle CPE inhibition assay on MDCK cell monolayers; type: cell-based; conditions: 0% EMEM + Hepes + Trypsin
Procedure: (§4) EC50 (μg/mL) values for 2-(acetolyloxy)-3-methyl-N-(5-bromo-2-thiazolyl)benzamide (RM4803), 2-(acetolyloxy)-3-methyl-N-(5-chloro-2-thiazolyl)benzamide (RM4804), and 2-(acetolyloxy)-3-methoxy-N-(5-bromo-2-thiazolyl)benzamide (RM4806), on Human Rhinovirus Type 39 (HRV-39), and H3N2 influenza virus, type A, using a multiple cycle CPE inhibition assay on OH-I Hela and Madin Darby Canine Kidney (MDCK) cell monolayers, respectively, were measured by microscopic and spectrophotometric methods. Pirodavir and Oseltamivir were included as positive controls.

[6] = system: Human Rhinovirus Type 39 (HRV-39); assay: Multiple cycle CPE inhibition assay on OH-I Hela cell monolayers; type: cell-based; conditions: Rhinovirus A, HRV39, HRV-39, OH-Hela, 2% McCoys + Hepes Buffer
Procedure: as §4

Giardia intestinalis = assay: Antiparasite test by conventional means; type: cell-based; conditions: at concentrations of at least 50 μg/mL
Procedure: (§5) The above identified compounds according to Formula (IV) were tested by conventional means against Trichomis vaginalis, Giardia Intestinalis, and Trypanosoma brucei.

Trichomonas vaginalis = assay: Antiparasite test by conventional means; type: cell-based; conditions: at concentrations of at least 50 μg/mL
Procedure: as §5

Trypanosoma brucei = assay: Antiparasite test by conventional means; type: cell-based; conditions: at concentrations of at least 50 μg/mL
Procedure: as §5

[7] = system: Paramyxovirus: Sendai virus; assay: microbe, parasite or virus in culture; type: cell-based; conditions: Respirovirus muris; Sendai virus in cell culture (Table 2)
Cryptosporidium spp. = assay: Efficacy against intracellular protozoa
Neospora spp. = assay: Efficacy against intracellular protozoa
Sarcocystis neurona = assay: Efficacy against intracellular protozoa
[8] = system: hepatitis C virus (HCV) replicon; assay: HCV replication in AVA5 replicon cell culture, 3-day assay; type: cell-based
Procedure: (§6) Anti-Hepatitis C Virus (HCV) analyses and an assessment of cytotoxicity were performed in a 3-day assay in the HCV replicon-containing human hepatoblastoma cell line, AVA5 (Okuse, C., Rinaudo, J. A., Farrar, K., Wells, F. & Korba, B. E. Enhancement of antiviral activity against hepatitis C virus in vitro by interferon combination therapy. Antivir. Res. 65, 23-34 (2005)) as previously described (Blight, K. J., Kolykhalov, A. A. & Rice, C. M. Efficient initiation of HCV RNA replication in cell culture. Science 290, 1972-1974 (2000)).
(§7) Values presented (±standard deviations [S.D.]) were calculated by linear regression analysis using data combined from all treated cultures. S.D. were calculated using the standard error of regression generated from the linear regression analyses (QuattroPro™). EC50, EC90=drug concentration at which a 2-fold, or a 10-fold depression of HCV RNA (relative to the average levels in untreated cultures), respectively, was observed. CC50=drug concentration at which a 2-fold depression of neutral red dye uptake was observed relative to the average levels in untreated cultures. Selectivity index=CC50/EC50.

[9] = Cytotoxicity in AVA5 cells (neutral red dye uptake); type: cell-based, human; conditions: human, 2-fold depression of neutral red dye uptake
Procedure: as §6, §7

[10] = Clostridia (18 isolates), agar dilution, read-out: MIC50
[11] = microscopic reading, read-out: EC50, Microscopic
[12] = spectrophotometric reading, read-out: EC50, Spectrophotometer

CCC[C@@H]1C[C@@H](C(=O)N[C@@H]([C@H]2O[C@H](SC)[C@H](O)[C@@H](O)[C@H]2O)[C@H](C)Cl)N(C)C1 [Clindamycin]
MIC50 (B. fragilis group): 2 µg/mL (≈ 4.71 µM)
MIC90 (B. fragilis group): > 32 µg/mL
MIC50 (Prevotella/Porphyromonas): ≤ 0.015 µg/mL
MIC90 (Prevotella/Porphyromonas): ≤ 0.015 µg/mL
MIC50 (fusobacteria): 0.06 µg/mL (≈ 0.141 µM)
MIC90 (fusobacteria): 0.125 µg/mL (≈ 0.294 µM)
MIC50 [1]: 0.125 µg/mL
MIC90 [1]: 0.5 µg/mL
MIC50 [2]: 0.125 µg/mL
MIC90 [2]: 4 µg/mL
MIC50 (clostridia): 1 µg/mL (≈ 2.35 µM)
MIC90 (clostridia): > 32 µg/mL
MIC50 [3]: 0.125 µg/mL (≈ 0.294 µM)
MIC90 [3]: 8 µg/mL (≈ 18.8 µM)

Nc1ccn([C@@H]2CS[C@H](CO)O2)c(=O)n1 [Lamivudine, reference compound]
EC50 (Hepatitis B Virus (HBV); read-out: Extracellular Virion DNA EC50): 0.058 ± 0.006 µM
EC90 (Hepatitis B Virus (HBV); read-out: Extracellular Virion DNA EC90): 0.164 ± 0.015 µM
EC50 (Hepatitis B Virus (HBV); read-out: Intracellular HBV R.I. EC50): 0.172 ± 0.02 µM
EC90 (Hepatitis B Virus (HBV); read-out: Intracellular HBV R.I. EC90): 0.66 ± 0.068 µM
Selectivity Index R.I. (Hepatitis B Virus (HBV); calculated with EC90 values (CC50/EC90), HBV R.I.): 3377
Selectivity Index Virion (Hepatitis B Virus (HBV); calculated with EC90 values (CC50/EC90), virion DNA): 12959
CC50 at 9 day [4]: 2230 ± 76 µM

Cc1ncc([N+](=O)[O-])n1CCO [Metronidazole]
MIC50 (B. fragilis group): 1 µg/mL (≈ 5.84 µM)
MIC90 (B. fragilis group): 2 µg/mL (≈ 11.7 µM)
MIC50 (Prevotella/Porphyromonas): 0.5 µg/mL (≈ 2.92 µM)
MIC50 (fusobacteria): 0.25 µg/mL (≈ 1.46 µM)
MIC90 (fusobacteria): 0.25 µg/mL (≈ 1.46 µM)
MIC50 [1]: 0.5 µg/mL
MIC90 [1]: 1 µg/mL
MIC50 [2]: > 16 µg/mL
MIC90 [2]: > 16 µg/mL
MIC50 [3]: 1 µg/mL (≈ 5.84 µM)
MIC90 [3]: 2 µg/mL (≈ 11.7 µM)

CC(=O)Oc1ccccc1C(=O)Nc1ncc([N+](=O)[O-])s1 [Nitazoxanide, 2-(acetolyloxy)-N-(5-nitro-2-thiazolyl) benzamide]
MIC50 (B. fragilis group): 2 µg/mL (≈ 6.51 µM)
MIC90 (B. fragilis group): 4 µg/mL (≈ 13 µM)
MIC50 (Prevotella/Porphyromonas): 4 µg/mL (≈ 13 µM)
MIC90 (Prevotella/Porphyromonas): 8 µg/mL (≈ 26 µM)
MIC50 (fusobacteria): 1 µg/mL (≈ 3.25 µM)
MIC50 [1]: 0.5 µg/mL
MIC90 [1]: 2 µg/mL
MIC50 [2]: 16 µg/mL
MIC90 [2]: > 32 µg/mL
MIC50 (clostridia; [10]): 0.5 µg/mL (≈ 1.63 µM)
MIC50 [3]: 2 µg/mL (≈ 6.51 µM)
MIC90 [3]: 4 µg/mL (≈ 13 µM)
Activity against anaerobic bacteria groups (summary in words) [3]: potent against all anaerobic bacteria groups except for Gram-positive anaerobic rods

CCOC(=O)C1=C[C@@H](OC(CC)CC)[C@H](NC(C)=O)[C@@H](N)C1 [Oseltamivir, reference compound]
EC50 [5, 11]: 0.13 to 0.17 µg/mL
EC50 [5, 12]: 0.08 to 0.36 µg/mL

CCOC(=O)c1ccc(OCCC2CCN(c3ccc(C)nn3)CC2)cc1 [Pirodavir, reference compound]
EC50 [6, 11]: 0.007 µg/mL
EC50 [6, 12]: 0.004 µg/mL

CC(=O)Oc1c(C)cccc1C(=O)Nc1ncc(Cl)s1 [RM-4804, 2-(acetolyloxy)-3-methyl-N-(5-chloro-2-thiazolyl)benzamide]
EC50 [6, 11]: 0.57 µg/mL
EC50 [6, 12]: 0.32 µg/mL
EC50 [5, 11]: 0.93 µg/mL
EC50 [5, 12]: 0.57 µg/mL
antiparasite activity (Giardia intestinalis): failed to exhibit antiparasite activitity
antiparasite activity (Trichomonas vaginalis): failed to exhibit antiparasite activitity
antiparasite activity (Trypanosoma brucei): failed to exhibit antiparasite activitity

COc1cccc(C(=O)Nc2ncc(Br)s2)c1OC(C)=O [RM-4806, 2-(acetolyloxy)-3-methoxy-N-(5-bromo-2-thiazolyl)benzamide]
EC50 [6, 11]: 5 µg/mL
EC50 [6, 12]: 4 µg/mL
EC50 [5, 11]: 0.46 µg/mL
EC50 [5, 12]: 0.57 µg/mL
antiparasite activity (Giardia intestinalis): failed to exhibit antiparasite activitity
antiparasite activity (Trichomonas vaginalis): failed to exhibit antiparasite activitity
antiparasite activity (Trypanosoma brucei): failed to exhibit antiparasite activitity

CC(=O)Oc1ccccc1C(=O)Nc1ncc(Br)s1 [RM-4820, 2-(acetolyloxy)-N-(5-bromo-2-thiazolyl)benzamide]
EC50 [7]: 0.34 µM
efficacy against intracellular protozoa (Cryptosporidium spp.): effective
efficacy against intracellular protozoa (Neospora spp.): effective
efficacy against intracellular protozoa (Sarcocystis neurona): effective

CC(=O)Oc1ccc(C)cc1C(=O)Nc1ncc(Br)s1 [RM-4821]
EC50 [7]: 0.36 µM
efficacy against intracellular protozoa (Cryptosporidium spp.): effective
efficacy against intracellular protozoa (Neospora spp.): effective
efficacy against intracellular protozoa (Sarcocystis neurona): effective

CC(=O)Oc1cc(C)ccc1C(=O)Nc1ncc(Br)s1 [RM-4822]
EC50 [7]: 0.36 µM
efficacy against intracellular protozoa (Cryptosporidium spp.): effective
efficacy against intracellular protozoa (Neospora spp.): effective
efficacy against intracellular protozoa (Sarcocystis neurona): effective

NC(=O)c1ncn([C@@H]2O[C@H](CO)[C@@H](O)[C@H]2O)n1 [Ribavirin, reference compound]
Selectivity Index ([8]; AVA5 cells, CC50/EC50): 0.6
EC50 ([8]; Hepatitis C virus, Ava5): 94 ± 10 µM
EC90 ([8]; Hepatitis C virus, Ava5): > 100 µM
CC50 at 3 day [9]: 61 ± 2.9 µM

O=C(Nc1ncc([N+](=O)[O-])s1)c1ccccc1O [Tizoxanide]
MIC50 (B. fragilis group): 2 µg/mL (≈ 7.54 µM)
MIC90 (B. fragilis group): 4 µg/mL (≈ 15.1 µM)
MIC90 (Prevotella/Porphyromonas): 16 µg/mL (≈ 60.3 µM)
MIC50 (fusobacteria): 0.5 µg/mL (≈ 1.89 µM)
MIC90 (fusobacteria): 2 µg/mL (≈ 7.54 µM)
MIC50 [1]: 0.5 µg/mL
MIC90 [1]: 1 µg/mL
MIC50 [2]: 8 µg/mL
MIC90 [2]: > 32 µg/mL
MIC50 (clostridia; [10]): 0.25 µg/mL (≈ 0.943 µM)
MIC50 [3]: 2 µg/mL (≈ 7.54 µM)
MIC90 [3]: 4 µg/mL (≈ 15.1 µM)
Activity against anaerobic bacteria groups (summary in words) [3]: potent against all anaerobic bacteria groups except for Gram-positive anaerobic rods
